Experimental findings from patent US12043601B2, “N-substituted-1H-1,2,4-triazole-3-carboxamides, analogues thereof, and methods of treatment using same” (THE REGENTS OF THE UNIVERSITY OF COLORADO, priority 2018, dated 2024) are described below.

SMILES strings stand for the structures. In brackets after ≈: the same amount, converted by molar mass.

A word on the IC50: it is the concentration that gives 50% inhibition. For orientation: MIC means the smallest concentration in the dilution series that meets the test's criterion for growth inhibition.

One data set in a line: Compound solubility. The settings on record: for Compound Solubility, 1 μM: solvent at 1 μM; for Compound Solubility, 10 μM: solvent at 10 μM; for Compound Solubility, 100 μM: solvent at 100 μM; for Compound Solubility, 1 mM: solvent at 1 mM; for Compound Solubility, 10 mM: solvent at 10 mM; for Compound Solubility, 16 mg/ml: solvent at 16 mg/ml. In kind it is physicochemical.

Data set [1] deals with T1, DksA (Salmonella typhimurium, UniProt P0A1G5). The data set can be described thus: DksA-mediated repression of rpsM in vitro transcription (IVT, qRT-PCR). In kind it is biochemical. How it is done:
(§1) To measure the potency of a compound in inhibition of DksA biological function, rpsMtranscripts in vitro was determined by non-radioactive in vitro transcription reactions with qPCR analysis with divergent compounds. Briefly, 5 nM pTIM-rpsMplasmid was mixed with […] of compounds in 10 μl reaction buffer (40 mM HEPES [pH 7.4], 2 mM MgCl2, 60 mM potassium glutamate, 0.05% NP-40, 200 μM ATP, 200 μM GTP, 200 μM CTP, 200 μM UTP, and 5 nM E. coli RNA polymerase holoenzyme (NEB, Ipswich, MA) with 5 μM DksA. The in vitro transcription was carried out at 37° C. for 10 min, and then terminated at 70° C. for 10 min. To remove template DNA after treated with DNaseI, DNA-free DNA Removal kit (ThermoFisher) was used according to manufacturer's direction. The resulting materials were used as templates to generate cDNA with 100 U MMLV reverse transcriptase (Promega), 0.45 μM gene specific primer, and 20 U RNase inhibitor (Promega). The amount of cDNA synthesized for 1 h at 42° C. was quantified by real-time PCR (qRT-PCR). The copy number of specific transcripts was calculated to the standard curve generated with known gene copy concentrations. The IC50 is the concentration at which the curve passes through the 50% inhibition level. Standard deviation was calculated from 3 independent experiments.
The compounds obtained in this screen were further analyzed for binding to the acidic pocket at the tip of DksA coiled-coil domain using the computer search program Dock. The analysis identified over 400 compounds. A panel of 40 compounds was selected from the top hits based on free energy binding scores. These compounds were investigated using the computer modeling program O. Two additional criteria were applied in order to narrow down the list of candidates: First, the compounds needed to fit deep into the pocket without any clashes; and second, the compounds bound to DksA should have minimal exposed moieties. The compounds selected were further refined according to energy minimization as calculated by the CNS program. 23 compounds were obtained from MolPort and they were tested for their ability to interfere with DksA in a high throughput screen that combined in vitro transcription with highly specific and quantitative qRT-PCR. Five of these compounds, including N-(3,4-dimethoxyphenyl)-1H-1,2,4-triazole-3-carboxamide (1), prevented DksA-mediated repression of rpsM in vitro transcription to some degree. […] Without intending to be limited to any particular theory, the effect that 1 has on DksA-dependent rpsM or hisG gene transcription is potentially due to differences in promoter activity.
(§2) The compounds were initially tested at 0.1 μM and 1 μM using as a target the promoter of the livJ gene that encodes a transporter of branch-chain amino acids (Table 4).
(Quantitative PCR measures a nucleic acid by following its amplification.)

The target of data set [2] is T1, DksA. The data set can be described thus: DksA-dependent livJ in vitro transcription. The data set is classed as biochemical. The settings on record: livJ promoter; for IVT: concentration showing activity. The protocol: as §1, §2
For another data set, the system named is Salmonella strain 14028s. Put plainly: Minimum inhibitory concentration in EG minimal media. The settings on record: 18 h; for Growth in EG at concentration tested 1 μg/ml / Growth in EG at concentration tested 2 μg/ml / Growth in EG at concentration tested 4 μg/ml / Growth in EG at concentration tested 8 μg/ml: EG minimal media, 37° C.; for MIC: Salmonella, 14028S. The data set is classed as cell-based, Salmonella Typhimurium. The protocol: DksA controls transcription of metabolic and virulence genes, allowing bacteria to both grow in minimum media and cause disease. Inhibition of bacterial growth in EG minimum media was used as an easy and reliable proxy of the DksA-dependent regulation of metabolism.
In a non-limiting example, wild-type Salmonella strain 14028s was grown overnight (18.5 h), and then diluted in EG minimal media to a density of about 10^5 CFU/mL. […] Each test tube was incubated at 37° C. with shaking for 18 h and bacterial growth was evaluated. The MIC value was determined as the lowest concentration of compound that inhibited growth.

T1 sequence (P0A1G5 whole entry): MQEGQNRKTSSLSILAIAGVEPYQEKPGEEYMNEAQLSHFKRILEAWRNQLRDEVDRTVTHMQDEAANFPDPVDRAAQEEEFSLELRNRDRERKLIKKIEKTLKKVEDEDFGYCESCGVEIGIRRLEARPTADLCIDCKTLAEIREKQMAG

`O=C(Nc1cc(Cl)cc(Cl)c1)c1nc[nH]n1` [Compound 14, N-(3,5-dichlorophenyl)-1H-1,2,4-triazole-3-carboxamide]: in “Compound solubility”, the “Compound Solubility, 1 μM” value was “water”; the “Compound Solubility, 10 μM” value was “water”; the “Compound Solubility, 100 μM” value is on record as “water”; the “Compound Solubility, 1 mM” value is “DMSO”. Further, in “Compound solubility”, the “Compound Solubility, 10 mM” value is “DMSO” and the “Compound Solubility, 16 mg/ml” value is “DMSO”. On DksA [1], the IC50 was 71 nM. Further, on DksA [2], the “In vitro transcription assay result, 0.1 μM” value is recorded as “no induction”; the “In vitro transcription assay result, 1 μM” value is on record as “no induction”; the IVT is 0.1 µM. Besides, in the data set on Salmonella strain 14028s, the “Growth in EG at concentration tested 1 μg/ml” value is “+”, the “Growth in EG at concentration tested 2 μg/ml” value is on record as “+”, the “Growth in EG at concentration tested 4 μg/ml” value is “+” and the MIC was determined as 8 µg/mL (≈ 31.1 µM).

Consider `O=C(NCCc1ccccc1)c1nc[nH]n1` [Compound 20, N-phenethyl-1H-1,2,4-triazole-3-carboxamide], for which, in “Compound solubility”, the “Compound Solubility, 1 μM” value is on record as “water”; the “Compound Solubility, 10 μM” value was “water”; the “Compound Solubility, 100 μM” value was “water”; the “Compound Solubility, 1 mM” value was “water”. In addition, in the data set “Compound solubility”, the “Compound Solubility, 10 mM” value is listed as “water” and the “Compound Solubility, 16 mg/ml” value is recorded as “DMSO”. The IC50 at DksA [1] worked out at 90 nM. At DksA [2], the “In vitro transcription assay result, 0.1 μM” value was “no induction”; the “In vitro transcription assay result, 1 μM” value is given as “no induction”; the IVT amounted to 0.1 µM. Besides, in the data set with Salmonella strain 14028s, the “Growth in EG at concentration tested 1 μg/ml” value is “+”, the “Growth in EG at concentration tested 2 μg/ml” value is reported as “+”, the “Growth in EG at concentration tested 4 μg/ml” value is “+” and the minimal inhibitory concentration (MIC) was determined as 8 µg/mL (≈ 37 µM).

Take `O=C(NCCCCc1ccccc1)c1nc[nH]n1` [Compound 16, N-(4-phenylbutyl)-1H-1,2,4-triazole-3-carboxamide]: in the data set “Compound solubility”, the “Compound Solubility, 1 μM” value is given as “water”; the “Compound Solubility, 10 μM” value was “water”; the “Compound Solubility, 100 μM” value is recorded as “water”; the “Compound Solubility, 1 mM” value is given as “water”. For the same compound, in the data set “Compound solubility”, the “Compound Solubility, 10 mM” value is given as “DMSO” and the “Compound Solubility, 16 mg/ml” value was “DMSO”. The compound also returned an IC50 at DksA [1] of 91 nM. For the same compound, on DksA [2], the “In vitro transcription assay result, 0.1 μM” value is “no induction”; the “In vitro transcription assay result, 1 μM” value is on record as “good repression”; the IVT was 0.1 µM. For the same compound, in the data set on Salmonella strain 14028s, the “Growth in EG at concentration tested 1 μg/ml” value is given as “+”, the “Growth in EG at concentration tested 2 μg/ml” value was “+”, the “Growth in EG at concentration tested 4 μg/ml” value is given as “+” and the minimal inhibitory concentration (MIC) is 16 µg/mL (≈ 65.5 µM).

Turning to `O=C(NCCCc1ccccc1)c1nc[nH]n1` [Compound 15, N-(3-phenylpropyl)-1H-1,2,4-triazole-3-carboxamide], in “Compound solubility”, the “Compound Solubility, 1 μM” value was “water”; the “Compound Solubility, 10 μM” value is reported as “water”; the “Compound Solubility, 100 μM” value is recorded as “water”; the “Compound Solubility, 1 mM” value is “water”. Moreover, in “Compound solubility”, the “Compound Solubility, 10 mM” value is “water” and the “Compound Solubility, 16 mg/ml” value was “DMSO”. At DksA [1], this compound yielded an IC50 of 51 nM. On DksA [2], the “In vitro transcription assay result, 0.1 μM” value is “no induction”; the “In vitro transcription assay result, 1 μM” value is “no induction”; the IVT was 0.1 µM. Also, in the data set on Salmonella strain 14028s, the “Growth in EG at concentration tested 1 μg/ml” value is listed as “+”, the “Growth in EG at concentration tested 2 μg/ml” value is listed as “+”, the “Growth in EG at concentration tested 4 μg/ml” value was “+” and the “Growth in EG at concentration tested 8 μg/ml” value is listed as “+”. In the data set with Salmonella strain 14028s, inhibition of growth (MIC) required 16 µg/mL (≈ 69.5 µM).

In the case of `O=C(NCCc1c[nH]c2ccccc12)c1nc[nH]n1` [Compound 19, N-(2-(1H-indol-3-yl)ethyl)-1H-1,2,4-triazole-3-carboxamide], in the data set “Compound solubility”, the “Compound Solubility, 1 μM” value is “water”; the “Compound Solubility, 10 μM” value is “water”; the “Compound Solubility, 100 μM” value is listed as “water”; the “Compound Solubility, 1 mM” value is reported as “water”. In “Compound solubility”, the “Compound Solubility, 10 mM” value is “water” and the “Compound Solubility, 16 mg/ml” value is given as “DMSO”. This compound also registered an IC50 against DksA [1] of 75 nM. On DksA [2], the “In vitro transcription assay result, 0.1 μM” value is reported as “no induction”; the “In vitro transcription assay result, 1 μM” value is “no induction”; the IVT came out at 0.1 µM. In the data set with Salmonella strain 14028s, the “Growth in EG at concentration tested 1 μg/ml” value was “+”, the “Growth in EG at concentration tested 2 μg/ml” value was “+”, the “Growth in EG at concentration tested 4 μg/ml” value is “+” and the “Growth in EG at concentration tested 8 μg/ml” value was “+”. Further, the MIC in the data set on Salmonella strain 14028s was 16 µg/mL (≈ 62.7 µM).

As for `CCCCNC(=O)c1nc[nH]n1` [Compound 12, N-butyl-1H-1,2,4-triazole-3-carboxamide], in the data set “Compound solubility”, the “Compound Solubility, 1 μM” value is on record as “water”; the “Compound Solubility, 10 μM” value is reported as “water”; the “Compound Solubility, 100 μM” value is recorded as “water”; the “Compound Solubility, 1 mM” value is given as “water”. Besides, in the data set “Compound solubility”, the “Compound Solubility, 10 mM” value was “water” and the “Compound Solubility, 16 mg/ml” value was “DMSO”. Besides, on DksA [1], the IC50 was 73 nM. Also, on DksA [2], the “In vitro transcription assay result, 0.1 μM” value was “no induction”; the “In vitro transcription assay result, 1 μM” value was “no induction”; the IVT came out at 0.1 µM. In addition, in the data set with Salmonella strain 14028s, the “Growth in EG at concentration tested 1 μg/ml” value is “+”, the “Growth in EG at concentration tested 2 μg/ml” value is “+”, the “Growth in EG at concentration tested 4 μg/ml” value is on record as “+” and the lowest concentration to inhibit growth (MIC) was 8 µg/mL (≈ 47.6 µM).
